These results are taken from patent US20240317735A1, “HYDROISOQUINOLINE OR HYDRONAPHTHYRIDINE COMPOUNDS FOR THE TREATMENT OF AUTOIMMUNE DISEASE” (Hoffmann-La Roche Inc., priority 2020, published 2024).

The term IC20 denotes the concentration at which the effect reaches the 20% level. A low value points to an effect from little substance.

SMILES strings stand for the structures.

Series [1] concerns the target T1, hERG channel (Homo sapiens, UniProt Q12809).
T1 construct: expressed in transfected cells; host or cells: CHO (CHOhERG)
Kind of series: hERG channel inhibition assay (patch-clamp, CHOhERG cells). It counts as cell-based. The note with it: for IC50 / IC20: CHOhERG cells, whole-cell patch-clamp; for IC20: human, CHO cells stably expressing hERG (CHOhERG); for hERG IC20/TLR7 IC50 / hERG IC20/TLR8 IC50 / hERG IC20/TLR9 IC50: safety ratio; for hERG IC20/TLR7 IC50: hERG IC20 over HEK/hTLR7 IC50; for hERG IC20/TLR8 IC50: hERG IC20 over HEK/hTLR8 IC50; for hERG IC20/TLR9 IC50: hERG IC20 over HEK/hTLR9 IC50. The method, then:
The hERG K^+ channels were cloned in humans and stably expressed in a CHO (Chinese hamster ovary) cell line. CHOhERG cells were used for patch-clamp (voltage-clamp, whole-cell) experiments. Cells were stimulated by a voltage pattern to activate hERG channels and conduct IKhERG currents (rapid delayed outward rectifier potassium current of the hERG channel). After the cells were stabilized for a few minutes, the amplitude and kinetics of IKhERG were recorded at a stimulation frequency of 0.1 Hz (6 bpm). Thereafter, the test compound was added to the preparation at increasing concentrations. For each concentration, an attempt was made to reach a steady-state effect, usually, this was achieved within 3-10 min at which time the next highest concentration was applied. The amplitude and kinetics of IKhERG are recorded in each concentration of the drug which were compared to the control values (taken as 100%). (references: Redfern W S, Carlsson L, Davis A S, Lynch W G, MacKenzie I, Palethorpe S, Siegl P K, Strang I, Sullivan A T, Wallis R, Camm A J, Hammond T G. 2003; Relationships between preclinical cardiac electrophysiology, clinical QT interval prolongation and torsade de pointes for a broad range of drugs: evidence for a provisional safety margin in drug development. Cardiovasc. Res. 58:32-45, Sanguinetti MC, Tristani-Firouzi M. 2006; hERG potassium channels and cardiac arrhythmia. Nature 440:463-469, Webster R, Leishman D, Walker D. 2002; Towards a drug concentration effect relationship for QT prolongation and torsades de pointes. Curr. Opin. Drug Discov. Devel. 5:116-26).
Background: The hERG channel carries a current that helps repolarise heart muscle cells.

The target of series [2] is T2, TLR9 (Homo sapiens, UniProt Q9NR96).
T2 sequence (Q9NR96 26-1032): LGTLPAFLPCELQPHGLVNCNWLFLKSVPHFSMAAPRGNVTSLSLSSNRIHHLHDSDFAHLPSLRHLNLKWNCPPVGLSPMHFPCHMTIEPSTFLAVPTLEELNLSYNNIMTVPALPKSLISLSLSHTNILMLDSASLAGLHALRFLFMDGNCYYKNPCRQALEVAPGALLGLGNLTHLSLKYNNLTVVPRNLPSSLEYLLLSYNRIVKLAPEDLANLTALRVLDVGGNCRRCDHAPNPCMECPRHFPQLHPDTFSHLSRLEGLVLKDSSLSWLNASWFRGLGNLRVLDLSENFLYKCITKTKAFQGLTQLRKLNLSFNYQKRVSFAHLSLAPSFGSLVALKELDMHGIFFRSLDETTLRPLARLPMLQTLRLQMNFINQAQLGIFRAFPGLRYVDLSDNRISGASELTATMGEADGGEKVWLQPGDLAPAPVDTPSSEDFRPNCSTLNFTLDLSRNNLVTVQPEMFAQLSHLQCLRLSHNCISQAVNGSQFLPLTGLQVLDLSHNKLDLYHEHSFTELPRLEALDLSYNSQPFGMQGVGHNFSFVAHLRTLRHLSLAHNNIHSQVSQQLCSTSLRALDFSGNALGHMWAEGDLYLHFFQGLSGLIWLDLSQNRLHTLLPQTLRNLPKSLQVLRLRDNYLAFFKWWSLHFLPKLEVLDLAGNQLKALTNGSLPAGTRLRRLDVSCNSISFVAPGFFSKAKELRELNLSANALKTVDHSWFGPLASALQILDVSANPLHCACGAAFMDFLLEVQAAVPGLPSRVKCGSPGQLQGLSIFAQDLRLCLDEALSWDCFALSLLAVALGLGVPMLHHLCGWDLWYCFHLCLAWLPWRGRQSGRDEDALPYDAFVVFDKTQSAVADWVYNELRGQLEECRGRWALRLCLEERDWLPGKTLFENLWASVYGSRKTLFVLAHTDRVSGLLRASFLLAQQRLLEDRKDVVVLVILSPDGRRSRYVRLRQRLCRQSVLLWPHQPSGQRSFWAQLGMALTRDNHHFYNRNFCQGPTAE
Kind of series: HEK293-Blue-hTLR-9 cells assay (SEAP reporter, ODN2006 stimulation). It counts as cell-based. More on the design: host or cells: HEK293 (HEK-Blue hTLR9). The conditions noted are these: HEK293-Blue-hTLR9 cells, ODN2006, 20 hrs; read-out: HEK/hTLR9 IC50. The essentials: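 Antagonist format: cells in DMEM/10% FBS exposed to serially diluted compound (1% DMSO) plus ODN2006 stimulation for 20 h at 37°C. Supernatant SEAP measured with QUANTI-Blue substrate, 2 h at 37°C, absorbance 620–655 nm.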

T1 sequence (Q12809 whole entry): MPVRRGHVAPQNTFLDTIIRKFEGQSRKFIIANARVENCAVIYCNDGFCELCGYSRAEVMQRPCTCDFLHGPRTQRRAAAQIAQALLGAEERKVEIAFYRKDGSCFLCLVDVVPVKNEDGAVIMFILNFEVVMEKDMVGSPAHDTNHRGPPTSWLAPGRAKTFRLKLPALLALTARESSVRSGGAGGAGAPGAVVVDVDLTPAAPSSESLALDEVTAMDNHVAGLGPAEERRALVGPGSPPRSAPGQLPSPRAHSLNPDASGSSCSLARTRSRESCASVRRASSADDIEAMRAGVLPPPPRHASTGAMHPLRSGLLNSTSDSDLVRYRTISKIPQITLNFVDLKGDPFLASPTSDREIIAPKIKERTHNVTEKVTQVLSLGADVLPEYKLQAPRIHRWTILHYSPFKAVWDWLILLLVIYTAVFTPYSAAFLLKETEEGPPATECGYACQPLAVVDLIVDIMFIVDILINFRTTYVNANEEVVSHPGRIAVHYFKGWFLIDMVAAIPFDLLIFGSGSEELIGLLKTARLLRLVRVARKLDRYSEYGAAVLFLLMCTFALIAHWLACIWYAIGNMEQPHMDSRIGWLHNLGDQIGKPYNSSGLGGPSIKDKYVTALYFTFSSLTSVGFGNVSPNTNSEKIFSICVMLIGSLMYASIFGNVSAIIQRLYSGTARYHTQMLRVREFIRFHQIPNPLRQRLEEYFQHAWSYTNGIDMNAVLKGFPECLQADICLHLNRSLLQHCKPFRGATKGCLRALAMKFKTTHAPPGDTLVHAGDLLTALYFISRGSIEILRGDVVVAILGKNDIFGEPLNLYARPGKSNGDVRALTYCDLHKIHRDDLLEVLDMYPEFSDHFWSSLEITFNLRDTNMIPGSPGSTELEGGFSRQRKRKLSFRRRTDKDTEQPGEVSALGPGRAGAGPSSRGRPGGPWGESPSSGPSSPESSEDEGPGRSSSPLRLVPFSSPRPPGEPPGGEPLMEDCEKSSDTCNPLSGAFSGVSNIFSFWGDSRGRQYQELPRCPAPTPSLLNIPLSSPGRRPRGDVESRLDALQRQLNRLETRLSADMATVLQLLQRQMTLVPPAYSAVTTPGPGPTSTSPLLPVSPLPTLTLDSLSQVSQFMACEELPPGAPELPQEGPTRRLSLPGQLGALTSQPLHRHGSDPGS

As to `CO[C@@H]1CN(c2ccc3c(c2)[C@@H](C)CN(c2ccnc4c2cnn4C)C3)C[C@H]1N` [Example 20, (3R,4R)-4-methoxy-1-[(4R)-4-methyl-2-(1-methylpyrazolo[3,4-b]pyridin-4-yl)-3,4-dihydro-1H-isoquinolin-6-yl]pyrrolidin-3-amine], in series [1], the IC50 was more than 20 µM, the IC20 was found to be 6.2 µM, the “hERG IC20/TLR7 IC50” value worked out at 2066.7 and the “hERG IC20/TLR8 IC50” value was 364.7. The “hERG IC20/TLR9 IC50” value in series [1] was determined as 25.9. Further, the IC50 in series [2] amounted to 0.239 µM.

For `C[C@H]1CN(c2ccnc3c2cnn3C)Cc2ccc(N3CC4(CNCCO4)C3)cc21` [Example 21, 2-[(4R)-4-methyl-2-(1-methylpyrazolo[3,4-b]pyridin-4-yl)-3,4-dihydro-1H-isoquinolin-6-yl]-5-oxa-2,8-diazaspiro[3.5]nonane], in series [1], the IC50 is more than 20 µM, the IC20 was more than 10 µM, the “hERG IC20/TLR7 IC50” value is given as more than 1428.6 and the “hERG IC20/TLR8 IC50” value is reported as more than 714.3. In addition, in series [1], the “hERG IC20/TLR9 IC50” value was more than 26.9. The IC50 in series [2] came to 0.372 µM.

For `C[C@H]1CN(c2ccnc3c2cnn3C)Cc2ccc(OC3CN(C4CCNCC4)C3)cc21` [Example 41, (4R)-4-methyl-2-(1-methylpyrazolo[3,4-b]pyridin-4-yl)-6-[1-(4-piperidyl)azetidin-3-yl]oxy-3,4-dihydro-1H-isoquinoline], in series [1], the IC50 is more than 20 µM, the IC20 turned out to be 5.1 µM, the “hERG IC20/TLR7 IC50” value is 728.6 and the “hERG IC20/TLR8 IC50” value was found to be 637.5. Further, the “hERG IC20/TLR9 IC50” value in series [1] is 108.5. Also, in series [2], the IC50 is 0.047 µM.

For `Cc1cc(N2Cc3cnc(OCCN4CCNCC4)cc3[C@@H](C)C2)c2cnn(C)c2n1` [Example 77, (4R)-2-(1,6-dimethylpyrazolo[3,4-b]pyridin-4-yl)-4-methyl-6-(2-piperazin-1-ylethoxy)-3,4-dihydro-1H-2,7-naphthyridine], in series [1], the IC50 is more than 20 µM, the 20% effect concentration (IC20) was more than 10 µM, the “hERG IC20/TLR7 IC50” value is more than 526.3 and the “hERG IC20/TLR8 IC50” value is more than 625.0. Moreover, the “hERG IC20/TLR9 IC50” value in series [1] is recorded as more than 69.4. Also, the IC50 in series [2] was determined as 0.144 µM.

Consider `C[C@H]1CN(c2ccnc3c2cnn3C)Cc2ccc(O[C@@H]3C[C@H]4CNCCN4C3)cc21` [Example 42, (4R)-4-methyl-2-(1-methylpyrazolo[3,4-b]pyridin-4-yl)-6-[[(7R,8aS)-1,2,3,4,6,7,8,8a-octahydropyrrolo[1,2-a]pyrazin-7-yl]oxy]-3,4-dihydro-1H-isoquinoline], for which, in series [1], the IC50 was more than 20 µM, the IC20 is more than 10 µM, the “hERG IC20/TLR7 IC50” value was more than 3333.3 and the “hERG IC20/TLR8 IC50” value was more than 5000.0. Further, the “hERG IC20/TLR9 IC50” value in series [1] is more than 25.1. Also, the IC50 in series [2] is 0.398 µM.

As for `C[C@H]1CN(c2ccnc3c2cnn3C)Cc2ccc(N3CCNCC3)cc21` [Example 1, (4R)-4-methyl-2-(1-methylpyrazolo[3,4-b]pyridin-4-yl)-6-piperazin-1-yl-3,4-dihydro-1H-isoquinoline], in series [1], the IC50 is more than 20 µM, the 20% effect level (IC20) was put at 6.4 µM, the “hERG IC20/TLR7 IC50” value was 2133.3 and the “hERG IC20/TLR8 IC50” value is recorded as 3200.0. The “hERG IC20/TLR9 IC50” value in series [1] came out at 32.3. Moreover, in series [2], the IC50 was found to be 0.198 µM.

In the case of `C[C@H]1CN(c2ccnc3c2cnn3C)Cc2ccc(N3C[C@@]4(CCNC4)CC3=O)cc21` (single isomer, unassigned) [Example 53], in series [1], the IC50 was more than 20 µM, the IC20 is more than 10 µM, the “hERG IC20/TLR7 IC50” value is recorded as more than 555.6 and the “hERG IC20/TLR8 IC50” value is on record as more than 1666.7. Also, the “hERG IC20/TLR9 IC50” value in series [1] was more than 47.6. For the same molecule, the IC50 in series [2] came to 0.21 µM.

As for `Cc1cc(N2Cc3cnc(O[C@@H]4C[C@H]5CNCCN5C4)cc3[C@@H](C)C2)c2cnn(C)c2n1` [Example 76, (4R)-2-(1,6-dimethylpyrazolo[3,4-b]pyridin-4-yl)-4-methyl-6-[[(7R,8aS)-1,2,3,4,6,7,8,8a-octahydropyrrolo[1,2-a]pyrazin-7-yl]oxy]-3,4-dihydro-1H-2,7-naphthyridine], in series [1], the IC50 is more than 20 µM, the 20% effect concentration (IC20) is more than 10 µM, the “hERG IC20/TLR7 IC50” value is more than 526.3 and the “hERG IC20/TLR8 IC50” value is given as more than 625.0. For the same molecule, the “hERG IC20/TLR9 IC50” value in series [1] is given as more than 69.4. For the same molecule, the IC50 in series [2] was 0.144 µM.

With `CO[C@H]1CN(c2cc3c(cn2)CN(c2cc(C)nc4c2cnn4C)C[C@@H]3C)CC[C@@H]1N` [Example 73, (3S,4S)-3-methoxy-1-[(5R)-7-(1,6-dimethylpyrazolo[3,4-b]pyridin-4-yl)-5-methyl-6,8-dihydro-5H-2,7-naphthyridin-3-yl]piperidin-4-amine], in series [1], the IC50 is more than 20 µM, the 20% effect level (IC20) was put at 6.9 µM, the “hERG IC20/TLR7 IC50” value is reported as 1725.0 and the “hERG IC20/TLR8 IC50” value is given as 3450.0. In series [1], the “hERG IC20/TLR9 IC50” value came out at 60.0. Besides, in series [2], the IC50 came to 0.115 µM.

With `Cc1cc(N2Cc3ccc(OC[C@H]4CNCCN4)cc3[C@@H](C)C2)c2cnn(C)c2n1` [Example 30, (4R)-2-(1,6-dimethylpyrazolo[3,4-b]pyridin-4-yl)-4-methyl-6-[[(2R)-piperazin-2-yl]methoxy]-3,4-dihydro-1H-isoquinoline], in series [1], the IC50 was more than 20 µM, it took 6.5 µM to reach the 20% level (IC20), the “hERG IC20/TLR7 IC50” value was 175.7 and the “hERG IC20/TLR8 IC50” value worked out at 3250.0. Further, the “hERG IC20/TLR9 IC50” value in series [1] stood at 73.9. Besides, the IC50 in series [2] was found to be 0.088 µM.

As for `C[C@H]1CN(c2ccnc3c2cnn3C)Cc2ccc(N3CC4(CCNCC4)CC3=O)cc21` [Example 16, 2-[(4R)-4-methyl-2-(1-methylpyrazolo[3,4-b]pyridin-4-yl)-3,4-dihydro-1H-isoquinolin-6-yl]-2,8-diazaspiro[4.5]decan-3-one], in series [1], the IC50 is more than 20 µM, the IC20 is more than 10 µM, the “hERG IC20/TLR7 IC50” value is recorded as more than 2000.0 and the “hERG IC20/TLR8 IC50” value was more than 2500.0. The “hERG IC20/TLR9 IC50” value in series [1] is listed as more than 158.7. The IC50 in series [2] stood at 0.063 µM.

For the molecule `Cc1cc(N2Cc3ccc(OC[C@@H]4CNCCN4)cc3[C@@H](C)C2)c2cnn(C)c2n1` [Example 31, (4R)-2-(1,6-dimethylpyrazolo[3,4-b]pyridin-4-yl)-4-methyl-6-[[(2S)-piperazin-2-yl]methoxy]-3,4-dihydro-1H-isoquinoline], in series [1], the IC50 was more than 20 µM, it took 8.5 µM to reach the 20% level (IC20), the “hERG IC20/TLR7 IC50” value was determined as 354.2 and the “hERG IC20/TLR8 IC50” value turned out to be 4250.0. In series [1], the “hERG IC20/TLR9 IC50” value came to 81.0. Also, the IC50 in series [2] came out at 0.105 µM.
